Laboratory results reported in the kinase profiling compilation of Christmann-Franck et al. (2016).

Legend:
Assay in all cases: radiometric filter-binding kinase assay, Kinase HotSpot
Conditions in all cases: compound 0.5 µM; ATP 10 µM
TAOK1 (human) = TAOK1 (human) (UniProt Q7L7X3)
DYRK1A (human) = DYRK1A (human) (UniProt Q13627)
MAPK14 (human) = MAPK14 (human) (UniProt Q16539)
MAP4K5 (human) = MAP4K5 (human) (UniProt Q9Y4K4)
CAMK2G (human) = CAMK2G (human) (UniProt Q13555)
DAPK3 (human) = DAPK3 (human) (UniProt O43293)
MKNK2 (human) = MKNK2 (human) (UniProt Q9HBH9)
ADRBK2 (human) = ADRBK2 (human) (UniProt P35626)
STK33 (human) = STK33 (human) (UniProt Q9BYT3)
MAP3K3 (human) = MAP3K3 (human) (UniProt Q99759)
EPHA1 (human) = EPHA1 (human) (UniProt P21709)
MAP3K8 (human) = MAP3K8 (human) (UniProt P41279)
MAP3K14 (human) = MAP3K14 (human) (UniProt Q99558)
TAOK3 (human) = TAOK3 (human) (UniProt Q9H2K8)
PRKACA (human) = PRKACA (human) (UniProt P17612)
DDR2 (human) = DDR2 (human) (UniProt Q16832)
PRKCH (human) = PRKCH (human) (UniProt P24723)
MARK2 (human) = MARK2 (human) (UniProt Q7KZI7)
STK25 (human) = STK25 (human) (UniProt O00506)
PRKD1 (human) = PRKD1 (human) (UniProt Q15139)
MLTK (human) = MLTK (human) (UniProt Q9NYL2)
PAK3 (human) = PAK3 (human) (UniProt O75914)
LRRK2 (human) = LRRK2 (human) (UniProt Q5S007)
INSRR (human) = INSRR (human) (UniProt P14616)
STK16 (human) = STK16 (human) (UniProt O75716)
CLK4 (human) = CLK4 (human) (UniProt Q9HAZ1)
NUAK1 (human) = NUAK1 (human) (UniProt O60285)
MYLK2 (human) = MYLK2 (human) (UniProt Q9H1R3)
CDK7 CCNH MNAT1 (human) = CDK7 CCNH MNAT1 (human) (UniProt P50613+P51948+P51946)
SRPK3 (human) = SRPK3 (human) (UniProt Q9UPE1)
RPS6KA4 KD2 (human) = RPS6KA4 KD2 (human) (UniProt O75676)
GRK6 (human) = GRK6 (human) (UniProt P43250)
TAOK2 (human) = TAOK2 (human) (UniProt Q9UL54)
NUAK2 (human) = NUAK2 (human) (UniProt Q9H093)
PRKX (human) = PRKX (human) (UniProt P51817)
SGK2 (human) = SGK2 (human) (UniProt Q9HBY8)
CSNK1G1 (human) = CSNK1G1 (human) (UniProt Q9HCP0)
CAMK2B (human) = CAMK2B (human) (UniProt Q13554)
IKBKB (human) = IKBKB (human) (UniProt O14920)
LIMK1 (human) = LIMK1 (human) (UniProt P53667)
NTRK2 (human) = NTRK2 (human) (UniProt Q16620)
AKT3 (human) = AKT3 (human) (UniProt Q9Y243)

Chain of CSNK1G1 (human) (Q9HCP0 whole entry, looked up): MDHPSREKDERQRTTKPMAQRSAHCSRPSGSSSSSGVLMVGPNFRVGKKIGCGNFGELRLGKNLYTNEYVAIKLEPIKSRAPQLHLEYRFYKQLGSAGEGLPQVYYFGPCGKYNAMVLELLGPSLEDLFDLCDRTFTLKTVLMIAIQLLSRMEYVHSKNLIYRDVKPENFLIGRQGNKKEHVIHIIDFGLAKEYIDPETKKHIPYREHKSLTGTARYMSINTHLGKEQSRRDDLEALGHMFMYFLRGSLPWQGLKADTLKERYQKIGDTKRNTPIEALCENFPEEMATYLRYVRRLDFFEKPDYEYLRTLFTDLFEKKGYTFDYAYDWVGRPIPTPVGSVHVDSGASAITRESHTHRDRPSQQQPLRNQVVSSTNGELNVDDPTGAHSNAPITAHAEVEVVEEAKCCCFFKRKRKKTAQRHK
Chain of MAP3K3 (human) (Q99759 whole entry, looked up): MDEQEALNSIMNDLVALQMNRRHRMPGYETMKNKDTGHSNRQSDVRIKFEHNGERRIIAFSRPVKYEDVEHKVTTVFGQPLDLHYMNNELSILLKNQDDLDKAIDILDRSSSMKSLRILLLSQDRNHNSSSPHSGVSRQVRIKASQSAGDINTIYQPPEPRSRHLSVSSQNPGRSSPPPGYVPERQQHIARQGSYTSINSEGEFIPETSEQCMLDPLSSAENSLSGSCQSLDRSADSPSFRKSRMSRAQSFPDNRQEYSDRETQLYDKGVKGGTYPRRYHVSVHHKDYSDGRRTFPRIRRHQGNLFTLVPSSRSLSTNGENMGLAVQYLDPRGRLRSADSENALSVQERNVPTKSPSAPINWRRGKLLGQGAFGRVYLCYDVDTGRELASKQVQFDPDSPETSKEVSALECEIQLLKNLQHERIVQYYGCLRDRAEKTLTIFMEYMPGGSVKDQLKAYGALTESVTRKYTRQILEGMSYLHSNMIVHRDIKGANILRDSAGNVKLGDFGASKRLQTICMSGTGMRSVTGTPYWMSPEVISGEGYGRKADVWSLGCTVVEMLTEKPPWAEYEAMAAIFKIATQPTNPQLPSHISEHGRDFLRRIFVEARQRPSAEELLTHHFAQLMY
Chain of DDR2 (human) (Q16832 whole entry, looked up): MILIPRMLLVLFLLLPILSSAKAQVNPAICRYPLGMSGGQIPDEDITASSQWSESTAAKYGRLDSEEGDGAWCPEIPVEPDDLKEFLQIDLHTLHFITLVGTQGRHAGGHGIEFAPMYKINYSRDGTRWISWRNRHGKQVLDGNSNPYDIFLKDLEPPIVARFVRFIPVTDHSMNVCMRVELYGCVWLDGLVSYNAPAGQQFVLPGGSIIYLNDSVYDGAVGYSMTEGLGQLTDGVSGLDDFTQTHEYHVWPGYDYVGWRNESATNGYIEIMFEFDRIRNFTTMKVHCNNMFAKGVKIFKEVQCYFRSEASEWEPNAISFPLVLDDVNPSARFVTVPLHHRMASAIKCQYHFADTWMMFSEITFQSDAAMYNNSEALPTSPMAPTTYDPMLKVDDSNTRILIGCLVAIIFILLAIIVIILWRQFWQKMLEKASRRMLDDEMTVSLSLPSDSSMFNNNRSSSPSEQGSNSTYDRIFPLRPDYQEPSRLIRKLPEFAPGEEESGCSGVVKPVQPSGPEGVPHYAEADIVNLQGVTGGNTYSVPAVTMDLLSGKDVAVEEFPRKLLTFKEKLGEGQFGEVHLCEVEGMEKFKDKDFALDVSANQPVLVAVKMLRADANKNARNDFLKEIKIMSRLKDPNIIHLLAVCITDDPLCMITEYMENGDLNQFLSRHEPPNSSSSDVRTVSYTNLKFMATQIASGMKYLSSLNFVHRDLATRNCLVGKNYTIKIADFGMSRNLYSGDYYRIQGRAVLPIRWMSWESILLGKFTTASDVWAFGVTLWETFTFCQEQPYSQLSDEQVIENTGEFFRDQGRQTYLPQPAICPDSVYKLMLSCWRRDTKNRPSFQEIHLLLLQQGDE
Chain of LIMK1 (human) (P53667 whole entry, looked up): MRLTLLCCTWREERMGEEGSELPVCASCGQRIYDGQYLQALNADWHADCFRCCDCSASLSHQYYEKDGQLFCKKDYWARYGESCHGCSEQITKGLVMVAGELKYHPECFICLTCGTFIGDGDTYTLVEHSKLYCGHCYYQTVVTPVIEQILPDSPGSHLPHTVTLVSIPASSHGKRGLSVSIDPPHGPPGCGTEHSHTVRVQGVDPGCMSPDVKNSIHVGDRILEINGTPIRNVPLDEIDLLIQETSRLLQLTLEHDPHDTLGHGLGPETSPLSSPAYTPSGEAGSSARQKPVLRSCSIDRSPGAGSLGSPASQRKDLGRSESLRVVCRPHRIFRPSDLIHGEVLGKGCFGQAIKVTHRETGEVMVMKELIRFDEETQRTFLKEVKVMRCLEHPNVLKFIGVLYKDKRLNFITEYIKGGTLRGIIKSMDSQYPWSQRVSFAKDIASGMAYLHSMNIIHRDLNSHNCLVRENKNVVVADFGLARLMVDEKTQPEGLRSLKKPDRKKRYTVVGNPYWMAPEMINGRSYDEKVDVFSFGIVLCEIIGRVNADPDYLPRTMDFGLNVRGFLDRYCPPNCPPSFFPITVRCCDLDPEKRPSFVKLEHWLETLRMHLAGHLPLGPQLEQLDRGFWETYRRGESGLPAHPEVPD
Chain of CLK4 (human) (Q9HAZ1 whole entry, looked up): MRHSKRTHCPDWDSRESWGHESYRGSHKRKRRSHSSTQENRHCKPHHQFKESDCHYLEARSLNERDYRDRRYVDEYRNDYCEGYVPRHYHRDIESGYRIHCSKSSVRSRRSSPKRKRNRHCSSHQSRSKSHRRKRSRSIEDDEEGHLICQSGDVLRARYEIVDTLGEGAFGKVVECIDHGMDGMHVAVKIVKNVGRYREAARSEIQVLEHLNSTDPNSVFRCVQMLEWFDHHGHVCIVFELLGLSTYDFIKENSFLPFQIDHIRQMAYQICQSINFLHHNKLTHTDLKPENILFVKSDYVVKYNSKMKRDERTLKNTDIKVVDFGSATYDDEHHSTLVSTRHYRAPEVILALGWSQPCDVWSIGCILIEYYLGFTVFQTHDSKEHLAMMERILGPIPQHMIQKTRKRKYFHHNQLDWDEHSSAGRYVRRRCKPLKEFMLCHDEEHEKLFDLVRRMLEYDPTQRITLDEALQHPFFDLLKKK
Chain of INSRR (human) (P14616 whole entry, looked up): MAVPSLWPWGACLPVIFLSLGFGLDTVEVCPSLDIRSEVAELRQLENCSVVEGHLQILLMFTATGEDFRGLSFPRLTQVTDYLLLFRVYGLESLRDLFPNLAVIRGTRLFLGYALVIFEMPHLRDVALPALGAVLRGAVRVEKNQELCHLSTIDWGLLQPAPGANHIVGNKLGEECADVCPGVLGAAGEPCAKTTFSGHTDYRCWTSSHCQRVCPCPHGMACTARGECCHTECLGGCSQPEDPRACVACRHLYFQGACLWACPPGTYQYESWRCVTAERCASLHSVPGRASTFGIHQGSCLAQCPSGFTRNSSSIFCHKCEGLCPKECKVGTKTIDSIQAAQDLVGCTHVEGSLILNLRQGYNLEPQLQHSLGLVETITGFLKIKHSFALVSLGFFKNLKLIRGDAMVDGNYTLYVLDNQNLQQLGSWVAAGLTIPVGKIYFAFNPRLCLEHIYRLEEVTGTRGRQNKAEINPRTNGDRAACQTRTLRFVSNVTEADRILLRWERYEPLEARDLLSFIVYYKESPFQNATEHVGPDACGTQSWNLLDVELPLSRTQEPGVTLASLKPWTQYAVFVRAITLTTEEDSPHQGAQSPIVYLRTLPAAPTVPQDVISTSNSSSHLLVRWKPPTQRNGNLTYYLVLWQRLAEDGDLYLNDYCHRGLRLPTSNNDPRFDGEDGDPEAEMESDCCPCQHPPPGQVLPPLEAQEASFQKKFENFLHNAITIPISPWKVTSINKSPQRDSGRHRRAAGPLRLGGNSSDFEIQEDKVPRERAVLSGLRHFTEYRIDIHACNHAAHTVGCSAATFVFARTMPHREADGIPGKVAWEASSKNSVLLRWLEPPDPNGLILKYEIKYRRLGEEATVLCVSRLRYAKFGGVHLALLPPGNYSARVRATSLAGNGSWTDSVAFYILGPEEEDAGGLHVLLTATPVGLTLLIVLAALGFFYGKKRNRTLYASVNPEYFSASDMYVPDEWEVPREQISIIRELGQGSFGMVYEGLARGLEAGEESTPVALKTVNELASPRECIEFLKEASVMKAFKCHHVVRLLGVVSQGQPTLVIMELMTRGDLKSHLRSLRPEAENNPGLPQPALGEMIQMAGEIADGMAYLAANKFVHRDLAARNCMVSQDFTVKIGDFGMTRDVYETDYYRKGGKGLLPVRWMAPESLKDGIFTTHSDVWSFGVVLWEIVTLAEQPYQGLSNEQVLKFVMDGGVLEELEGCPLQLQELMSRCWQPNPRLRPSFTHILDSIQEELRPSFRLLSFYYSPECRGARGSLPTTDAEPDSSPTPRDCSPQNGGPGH
Chain of PAK3 (human) (O75914 whole entry, looked up): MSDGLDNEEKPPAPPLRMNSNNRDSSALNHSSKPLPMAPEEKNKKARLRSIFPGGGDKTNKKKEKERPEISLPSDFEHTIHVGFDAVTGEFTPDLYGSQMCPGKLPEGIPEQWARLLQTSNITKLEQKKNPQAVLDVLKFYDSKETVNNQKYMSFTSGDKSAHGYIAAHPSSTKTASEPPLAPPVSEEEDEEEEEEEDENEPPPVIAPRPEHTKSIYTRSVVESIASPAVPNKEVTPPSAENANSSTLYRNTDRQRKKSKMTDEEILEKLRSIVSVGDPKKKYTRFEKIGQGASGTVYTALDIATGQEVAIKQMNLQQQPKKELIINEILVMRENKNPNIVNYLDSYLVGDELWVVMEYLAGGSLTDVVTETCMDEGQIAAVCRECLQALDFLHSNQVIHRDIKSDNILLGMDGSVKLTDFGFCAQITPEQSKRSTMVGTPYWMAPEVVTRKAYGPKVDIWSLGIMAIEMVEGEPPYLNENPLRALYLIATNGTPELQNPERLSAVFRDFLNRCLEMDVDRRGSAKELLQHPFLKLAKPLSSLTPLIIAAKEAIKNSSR

## CC(C)[C@H](CO)Nc1nc(Nc2cc(N)cc(Cl)c2)c2ncn(C(C)C)c2n1
TAOK1 (human)
  residual activity: 79.9%
DYRK1A (human)
  residual activity: 57.1%
MAPK14 (human)
  residual activity: 98.9%
MAP4K5 (human)
  residual activity: 82.5%
CAMK2G (human)
  residual activity: 104%
DAPK3 (human)
  residual activity: 96.7%
MKNK2 (human)
  residual activity: 113%
ADRBK2 (human)
  residual activity: 97.1%
STK33 (human)
  residual activity: 56.2%
MAP3K3 (human)
  residual activity: 100%
EPHA1 (human)
  residual activity: 76.9%
MAP3K8 (human)
  residual activity: 109%
MAP3K14 (human)
  residual activity: 100%
TAOK3 (human)
  residual activity: 86.9%
PRKACA (human)
  residual activity: 101%
DDR2 (human)
  residual activity: 128%
PRKCH (human)
  residual activity: 99.4%
MARK2 (human)
  residual activity: 74.1%
STK25 (human)
  residual activity: 81.8%
PRKD1 (human)
  residual activity: 94.2%
MLTK (human)
  residual activity: 92.3%
PAK3 (human)
  residual activity: 101%
LRRK2 (human)
  residual activity: 101%
INSRR (human)
  residual activity: 70.8%
STK16 (human)
  residual activity: 74%
CLK4 (human)
  residual activity: 16.5%
NUAK1 (human)
  residual activity: 61.5%
MYLK2 (human)
  residual activity: 99.5%
CDK7 CCNH MNAT1 (human)
  residual activity: 54.7%
SRPK3 (human)
  residual activity: 37.7%
RPS6KA4 KD2 (human)
  residual activity: 89.3%
GRK6 (human)
  residual activity: 72.1%
TAOK2 (human)
  residual activity: 82.2%
NUAK2 (human)
  residual activity: 81.4%
PRKX (human)
  residual activity: 101%
SGK2 (human)
  residual activity: 121%
CSNK1G1 (human)
  residual activity: 26.4%
CAMK2B (human)
  residual activity: 98.2%
IKBKB (human)
  residual activity: 104%
LIMK1 (human)
  residual activity: 107%
NTRK2 (human)
  residual activity: 3.04%

## CC(C)c1nn(-c2c(Cl)cccc2Cl)c2nc(Cc3ccc(OCCO)cc3)nc(O)c12
TAOK1 (human)
  residual activity: 72.1%
DYRK1A (human)
  residual activity: 105%
MAPK14 (human)
  residual activity: 96.8%
MAP4K5 (human)
  residual activity: 89.9%
CAMK2G (human)
  residual activity: 98.9%
DAPK3 (human)
  residual activity: 104%
MKNK2 (human)
  residual activity: 88.9%
ADRBK2 (human)
  residual activity: 87.9%
STK33 (human)
  residual activity: 97.5%
MAP3K3 (human)
  residual activity: 110%
EPHA1 (human)
  residual activity: 95%
MAP3K8 (human)
  residual activity: 96.4%
MAP3K14 (human)
  residual activity: 97.3%
TAOK3 (human)
  residual activity: 91.3%
PRKACA (human)
  residual activity: 99.8%
DDR2 (human)
  residual activity: 96.3%
PRKCH (human)
  residual activity: 87.4%
MARK2 (human)
  residual activity: 88%
STK25 (human)
  residual activity: 68.1%
PRKD1 (human)
  residual activity: 103%
MLTK (human)
  residual activity: 94.4%
PAK3 (human)
  residual activity: 94.8%
LRRK2 (human)
  residual activity: 109%
INSRR (human)
  residual activity: 94.2%
STK16 (human)
  residual activity: 83.8%
CLK4 (human)
  residual activity: 81.2%
NUAK1 (human)
  residual activity: 96.9%
MYLK2 (human)
  residual activity: 96.6%
CDK7 CCNH MNAT1 (human)
  residual activity: 60.3%
SRPK3 (human)
  residual activity: 92.9%
RPS6KA4 KD2 (human)
  residual activity: 95.3%
GRK6 (human)
  residual activity: 101%
TAOK2 (human)
  residual activity: 93.3%
NUAK2 (human)
  residual activity: 91.7%
PRKX (human)
  residual activity: 96.3%
SGK2 (human)
  residual activity: 101%
CSNK1G1 (human)
  residual activity: 101%
CAMK2B (human)
  residual activity: 104%
IKBKB (human)
  residual activity: 103%
LIMK1 (human)
  residual activity: 107%
NTRK2 (human)
  residual activity: 101%

## Cn1sc(=O)n(Cc2ccccc2)c1=O
TAOK1 (human)
  residual activity: 88.9%
DYRK1A (human)
  residual activity: 92.6%
MAPK14 (human)
  residual activity: 101%
MAP4K5 (human)
  residual activity: 107%
CAMK2G (human)
  residual activity: 90.1%
DAPK3 (human)
  residual activity: 103%
MKNK2 (human)
  residual activity: 92.1%
ADRBK2 (human)
  residual activity: 99.6%
STK33 (human)
  residual activity: 101%
MAP3K3 (human)
  residual activity: 94.2%
EPHA1 (human)
  residual activity: 106%
MAP3K8 (human)
  residual activity: 97.1%
MAP3K14 (human)
  residual activity: 81.6%
TAOK3 (human)
  residual activity: 101%
PRKACA (human)
  residual activity: 105%
DDR2 (human)
  residual activity: 102%
PRKCH (human)
  residual activity: 89%
MARK2 (human)
  residual activity: 118%
STK25 (human)
  residual activity: 96.2%
PRKD1 (human)
  residual activity: 101%
MLTK (human)
  residual activity: 100%
PAK3 (human)
  residual activity: 100%
LRRK2 (human)
  residual activity: 91.9%
INSRR (human)
  residual activity: 99.3%
STK16 (human)
  residual activity: 105%
CLK4 (human)
  residual activity: 99.1%
NUAK1 (human)
  residual activity: 102%
MYLK2 (human)
  residual activity: 101%
CDK7 CCNH MNAT1 (human)
  residual activity: 96.8%
SRPK3 (human)
  residual activity: 97.3%
RPS6KA4 KD2 (human)
  residual activity: 99%
GRK6 (human)
  residual activity: 104%
TAOK2 (human)
  residual activity: 91%
NUAK2 (human)
  residual activity: 97.7%
PRKX (human)
  residual activity: 102%
SGK2 (human)
  residual activity: 100%
CSNK1G1 (human)
  residual activity: 95.2%
AKT3 (human)
  residual activity: 96.6%
CAMK2B (human)
  residual activity: 102%
IKBKB (human)
  residual activity: 112%
LIMK1 (human)
  residual activity: 101%

## CN([C@@H](Cc1ccc(OS(=O)(=O)c2cccc3cnccc23)cc1)C(=O)N1CCN(c2ccccc2)CC1)S(=O)(=O)c1cccc2cnccc12
TAOK1 (human)
  residual activity: 98.7%
DYRK1A (human)
  residual activity: 102%
MAPK14 (human)
  residual activity: 91%
MAP4K5 (human)
  residual activity: 96.3%
DAPK3 (human)
  residual activity: 106%
MKNK2 (human)
  residual activity: 104%
ADRBK2 (human)
  residual activity: 113%
STK33 (human)
  residual activity: 97.3%
MAP3K3 (human)
  residual activity: 96.4%
EPHA1 (human)
  residual activity: 102%
MAP3K8 (human)
  residual activity: 99.3%
MAP3K14 (human)
  residual activity: 90.7%
TAOK3 (human)
  residual activity: 89.9%
DDR2 (human)
  residual activity: 96.9%
PRKCH (human)
  residual activity: 89.8%
MARK2 (human)
  residual activity: 103%
STK25 (human)
  residual activity: 98.8%
PRKD1 (human)
  residual activity: 101%
MLTK (human)
  residual activity: 103%
PAK3 (human)
  residual activity: 102%
LRRK2 (human)
  residual activity: 97.1%
INSRR (human)
  residual activity: 94.9%
STK16 (human)
  residual activity: 104%
CLK4 (human)
  residual activity: 97.2%
NUAK1 (human)
  residual activity: 97.5%
MYLK2 (human)
  residual activity: 98.8%
CDK7 CCNH MNAT1 (human)
  residual activity: 99.4%
SRPK3 (human)
  residual activity: 98%
RPS6KA4 KD2 (human)
  residual activity: 98.7%
GRK6 (human)
  residual activity: 101%
TAOK2 (human)
  residual activity: 98.3%
NUAK2 (human)
  residual activity: 88.7%
PRKX (human)
  residual activity: 109%
SGK2 (human)
  residual activity: 100%
CSNK1G1 (human)
  residual activity: 102%
AKT3 (human)
  residual activity: 104%
CAMK2B (human)
  residual activity: 97.8%
IKBKB (human)
  residual activity: 96.7%
LIMK1 (human)
  residual activity: 104%
NTRK2 (human)
  residual activity: 103%
